Values of other authors as cited in US9040535B2, “Crystalline molecular comlpexes of tadalafil” (THAR PHARMACEUTICALS, INC., priority 2009, dated 2015).

Tests used:
[1] = n-octanol/buffer pH 7.4

## CN1CC(=O)N2[C@H](c3ccc4c(c3)OCO4)c3[nH]c4ccccc4c3C[C@@H]2C1=O [Tadalafil, (6R-trans)-6-(1,3-benzodioxol-5-yl)-2,3,6,7,12,12a-hexahydro-2methyl-pyrazino[1′,2′:1,6]pyrido[3,4-b]indole-1,4-dione]
chloroform
  solubility in chloroform: sparingly soluble
dioxane
  solubility in dioxane: soluble
tetrahydrofuran
  solubility in tetrahydrofuran: sparingly soluble
water
  solubility in water: practically insoluble
[1]
  apparent partition coefficient (log P)app: 1.7
